The record followed here is patent US11992497B2 (priority 2021, dated 2024).

Series [1] has as its system p-cMyc(S62), cMyc, p-AKT(S473), AKT, p-ERK(T202/Y204), ERK. The series can be described thus: Target engagement Western blot in HCT116 cells. Format: cell-based. Conditions: 10-80 μM, 3 hours. On the procedure: For Western blot, the compounds were tested at 4 concentrations for 3 hours on 3 colon cancer cell lines. The compounds, concentrations, colon cancer cell line panel, and antibodies panel tested are the following: • CBG: 0 μM, 10 μM, 20 μM, 40 μM, and 80 μM. • Compound 1: 0 μM, 10 μM, 20 μM, 40 μM, and 80 μM. • Compound 2: 0 μM, 10 μM, 20 μM, 40 μM, and 80 μM. • Colon cancer cell line panel: SW620, HCT15, HCT116 • Antibodies panel: p-cMYC(S62), cMyc, p-AKT(S473), AKT, p-ERK(T202/Y204), ERK Methods
Evaluation of target engagement was performed to determine the expression of specific marker protein expression and underlying signaling pathways with Western blot.
Western blot. Whole cell extracts were prepared by incubating cell pellets in IP lysis buffer supplemented with protease and phosphatase inhibitors (Roche). Isolated protein was quantified by Pierce BCA Protein assay (ThermoFisher). Equal quantities of protein were separated by 4-15% SDS-PAGE electrophoresis gels and transferred onto nitrocellulose membranes. Membranes was blocked with 5% nonfat milk in Tris-buffered saline-Tween buffer. […]
Background: Immunoblotting shows a protein as a band on a membrane.

Series [2] in a line: Quantification of CBG in rat brain tissue (LC-MS/MS). The format is in vivo, Sprague-Dawley rat. The following applies: for concentration at 24 h: Sprague-Dawley, rat, brain, oral. The procedure: The purpose of this study was to quantify cannabigerol (CBG) in rat plasma and brain.
Seven- to nine-week-old male and female Sprague-Dawley received either a single dose or once daily dosing for 21 days of vehicle or CBG at three different dosage levels as shown in the Table below.
Approximately 0.2-0.25 mL blood was collected during the first 24 hours after the single dose, and at multiple times points after the terminal dose for the animals receiving daily dosing for 21 days. Liver, kidney, and colon samples were collected and fixed in 10% NBF for 48 hours, then stored in 70% ethanol at room temperature. Brain samples were collected and flash frozen.
Analytical curves were constructed using non-zero standards with CBG concentration ranging from 0.0025 to 2.500 μg/mL and 2.500-100.0 μg/mL in blank rat plasma samples and 1.0 to 2500 ng/mL in blank brain tissues. A blank sample was used to exclude contamination.
Instrument Used: AB SCIEX QTRAP 4500/Shimadzu Prominence LC

Series [3] can be described thus: Hepatocyte stability and metabolite profiling. The format is in vitro ADME, human. The following applies: cryopreserved hepatocytes in suspension; Human cryopreserved hepatocytes. The procedure:
(§1) The objective of this study was to investigate the stability of the test compound, CBG, in human, rat, dog, mouse, monkey and minipig cryopreserved hepatocytes. Follow-on metabolite profiling was performed.
(§2) CBG was incubated up to 2 hr with cryopreserved hepatocytes. Cryopreserved hepatocytes in suspension were added to test compound in supplemented media following pre-incubation to initiate the reaction and the reactions were stopped by organic solvent at the appropriate time points. The termination plates were centrifuged and sample supernatants were analysed using Cyprotex generic LC MS/MS conditions to generate intrinsic clearance values for CBG. Two control compounds for each species were included in the assay and if the values for these compounds were not within the specified limits the results were rejected and the experiment repeated.
(§3) Following the hepatocyte stability assay the samples were 59tilized for metabolite profiling using suitable high-resolution LC-MS/MS conditions. The 40 and 60 minute human samples, 20 and 120 minute rat samples, 10 and 20 minute dog and monkey samples, 20 and 60 minute mouse samples, and 40 and 120 minute minipig samples were compared against the 0 minute control sample to establish which and how many metabolites were formed. […] No further analysis was carried out with the mouse species.
(§4) The areas and percentages reported for the parent and metabolites were calculated using the XIC data. Metabolite observed at greater than 1% of the total of drug related material are reported. […] For accuracy, a ppm error of less than 5 is desirable; when the response for a metabolite observed is low the ppm error maybe greater than 5. Where a metabolite has been referred to as a potential oxidation it can refer to a potential hydroxylation, epoxidation or oxide formation. Representative collision induced dissociation (CID) mass spectra were obtained for the metabolites found.

Series [4] has as its system cryopreserved hepatocytes. The series can be described thus: Hepatocyte stability and metabolite profiling. The format is in vitro ADME, human. Conditions: human hepatocyte samples. On the procedure:
as §1, §2, §3, §4

The nature of series [5]: Hepatocyte stability and metabolite profiling. Conditions: cryopreserved hepatocytes in suspension; Rat cryopreserved hepatocytes. The format is in vitro ADME, rat. The procedure: as §1, §2, §3, §4
Series [6] concerns cryopreserved hepatocytes. The series can be described thus: Hepatocyte stability and metabolite profiling. The format is in vitro ADME, rat. The following applies: rat hepatocyte samples. The procedure: as §1, §2, §3, §4
A short description of series [7]: Hepatocyte stability and metabolite profiling. The format is in vitro ADME, dog. Conditions: cryopreserved hepatocytes in suspension; Dog cryopreserved hepatocytes. On the procedure:
as §1, §2, §3, §4

Series [8] deals with cryopreserved hepatocytes. The series can be described thus: Hepatocyte stability and metabolite profiling. The format is in vitro ADME, dog. Conditions: dog hepatocyte samples. The procedure: as §1, §2, §3, §4
Series [9] in a line: Hepatocyte stability and metabolite profiling. Format: in vitro ADME. Conditions: cryopreserved hepatocytes in suspension; Mouse cryopreserved hepatocytes. On the procedure:
as §1, §2
Following the hepatocyte stability assay the samples were 59tilized for metabolite profiling using suitable high-resolution LC-MS/MS conditions. The 40 and 60 minute human samples, 20 and 120 minute rat samples, 10 and 20 minute dog and monkey samples, 20 and 60 minute mouse samples, and 40 and 120 minute minipig samples were compared against the 0 minute control sample to establish which and how many metabolites were formed. […]
The areas and percentages reported for the parent and metabolites were calculated using the XIC data. […]

A short description of series [10]: Hepatocyte stability and metabolite profiling. Format: in vitro ADME, minipig. The following applies: cryopreserved hepatocytes in suspension; Minipig cryopreserved hepatocytes. The procedure:
as §1, §2, §3, §4

Series [11] concerns cryopreserved hepatocytes. The series can be described thus: Hepatocyte stability and metabolite profiling. Format: in vitro ADME, minipig. The following applies: minipig hepatocyte samples. The procedure: as §1, §2, §3, §4

As a reminder, the half-life is the time needed for the level to fall by half in the phase considered. One may read the hepatocyte CLint as the rate of metabolic loss divided by the concentration.

Where two headings read alike, the source gives them in different places.

Turning to `CCCCCc1cc(O)c(C/C=C(\C)CCC=C(C)C)c(OC)c1` [Compound 1, (E)-2-(3,7-dimethylocta-2,6-dien-1-yl)-3-methoxy-5-pentylphenol], in series [1], the “pAKT(S473) (Western blot)” value is on record as “down-regulated pAKT(S473) in HCT116 cells with a dose effect”.

Regarding `CCCCCc1cc(O)c(C/C=C(\C)CCC=C(C)C)c(O)c1` [CBG, cannabigerol], in series [2] (CBG 10 mg/kg oral gavage once daily, 24 hrs post Rx), the “CBG concentration in rat brain tissue (Day 21)” value is reported as “BLQ (BLQ—Below Limit of Quantification (1.0 ng/g))”. Also, the concentration at 24 h came out at 43.8 ng/g in series [2] (both sexes, 30 mg/kg, CBG 30 mg/kg oral gavage once daily, 24 hrs post Rx, read-out: CBG concentration in rat brain tissue (Day 21)); 299 ng/g in series [2] (female, 100 mg/kg, CBG 100 mg/kg once daily, 24 hrs post Rx, female rats, read-out: CBG concentration in rat brain tissue (Day 21), Average); 540 ng/g in [2] (male, 100 mg/kg, CBG 100 mg/kg once daily, 24 hrs post Rx, male rats, read-out: CBG concentration in rat brain tissue (Day 21), Average). Further, the “CBG in brain (in words)” value in [2] (oral CBG, Day 21) is on record as “not detected”. The half-life in series [3] was 22.6 min; in [5], 49 min; in series [7], 52.7 min; in series [9], 42.2 min; in series [10] it was 42.7 min. For the same compound, the hepatocyte CLint in series [3] came to 61.4 µL/min/1e6 cells; in [5], 28.3 µL/min/1e6 cells; in [7] it was 26.3 µL/min/1e6 cells; in [9], 32.8 µL/min/1e6 cells; in series [10] it was 32.5 µL/min/1e6 cells. Moreover, the “number of metabolites observed” value in series [4] is recorded as “Seven”; in series [6], “eight”; in series [8] it was “three”; in [11] it was “four”.
